Results from PMC10049495, “Antitumor Activity of PEGylated and TEGylated Phenothiazine Derivatives: Structure–Activity Relationship” (International Journal of Molecular Sciences, 2023).

How the values were obtained:
U87-MG = details: cell line not clear from layout (U87-MG assumed); cited from earlier work
[1] = test system: liver cancer (HepG2) cells; test: Cytotoxicity MTS assay on HepG2; format: cell-based, human; details: for IC50: Homo sapiens, HepG2, 48 h, MTS, tested 0.01-0.3 mM, read-out: Half maximal inhibition concentration (IC50); for Selectivity index (SI): IC50 NHDF / IC50 HepG2
Procedure: (§1) Cell culture: NHDF, HeLa, HOS, HepG2, MCF7, MeWo and CT-26 cells were cultivated in complete Eagle’s Minimal Essential Medium alpha (aMEM) containing a 1% Penicillin–Streptomycin–Amphotericin B mixture and a 10% fetal bovine serum under 5% CO2 humidified atmosphere at 37 °C. LN-229 cells were cultivated in DMEM with a 1% Penicillin–Streptomycin–Amphotericin B mixture and a 5% fetal bovine serum. U-118 cells were cultivated in DMEM with a 1% Penicillin–Streptomycin–Amphotericin B mixture and a 10% fetal bovine serum. StemPro™ Accutase™ Cell Dissociation Reagent was used for passaging MeWo and U-118 cells, and TrypLE Express was used for all other cell lines.
(§2) The working solutions were prepared by diluting the stock solutions with complete medium so that the final concentration of DMSO in the cell culture was 1%. The working solutions were used for incubation. Control cells were treated only with complete cell culture medium containing 1% DMSO.
(§3) Cytotoxicity MTS assay: In order to perform the MTS assay, cells were placed in culture-treated 96-well plates at densities of 5 × 10^3 cells/well (NHDF and CT-26), 7 × 10^3 cells/well (MCF7) and 10 × 10^3 cells/well (HOS, HeLa, HepG2, MeWo, LN-229, U-118) in 100 μL of a MEM medium/well and allowed to adhere for 24 h. After 24 h, the culture medium was replaced with the tested compound solutions at various concentrations, and the plates were incubated for another 48 h. Before the final reading, 20 μL CellTiter 96® Aqueous One Solution/well was added, and the plates were incubated for 1–4 h. Finally, the absorbance was recorded with a microplate reader at λ = 490 nm. The relative cell viability was expressed as a percentage of the viability of control, and the half maximal inhibitory concentration (IC50) was determined from the graphical representation of the cell viability vs. concentration. Graphical data were expressed as means ± standard error of the mean (S.E.M.). Statistical analysis was made with two-way ANOVA using Tukey’s multiple comparisons test. The difference was considered significant when p < 0.05. Data analysis was performed with GraphPad Prism software version 7.00 for Windows.

[2] = test system: mouse colon carcinoma cell line (CT26); test: Cytotoxicity MTS assay on CT-26; format: cell-based; details: for Selectivity index (SI): IC50 NHDF / IC50 CT-26; for IC50: Mus musculus, CT26, CT-26, 48 h, MTS, tested 0.01-0.3 mM, read-out: Half maximal inhibition concentration (IC50)
Procedure: as §1, §2, §3

[3] = Solubility test in water with 1% DMSO; format: physicochemical; details: water with 1% of DMSO, read-out: concentration up to which the compound is soluble
Procedure: Solubility tests were performed to establish the maximum concentration of the compounds that might be used for in vitro tests by dissolving 0.003 mmol of compound in 1mL of water (H2O) with 1% of DMSO. The amount of solvent was increased until the compound was completely dissolved. The volume of solvent corresponding to the solving point was used to calculate the concentration. The TEGylated compounds were soluble under 0.3 mM (PTF) and 0.2 mM (PTMA, PTEA), and PEGylated compounds were soluble at to a concentration of 2 mM.

[4] = test system: normal human dermal fibroblasts (NHDF); test: Cytotoxicity MTS assay on normal fibroblasts; format: cell-based; details: Homo sapiens, 48 h, tested 0.01-0.3 mM, read-out: Half maximal inhibition concentration (IC50)
Procedure: as §1, §2, §3

[5] = Glutamine imination/transimination (amino acid binding) followed by NMR; details: 1/1 molar ratio with glutamine, MEM medium, 37 °C, 48 h
Procedure: The ability of the studied compounds to bind amino acids by imitation or transamination processes was investigated for glutamine amino acid. To do this, all compounds were incubated in the presence of glutamine for 48 h in a MEM solution to simulate in vitro tests on cancer cell lines. After incubation, the water was removed by lyophilization, and the crude solid was analyzed by NMR. […] Additional information about imine formation was obtained from the H,C-HSQC spectrum (Figure S2). In this type of heteronuclear bidimensional spectrum, a proton–carbon direct bond correlation signal was obtained between the proton resonating at 8.15 ppm and the carbon resonating at 160.5 ppm.
The mixtures were incubated at 37 °C for 48 h in order to simulate the in vitro conditions of antitumor determinations. After the incubation, all the samples were lyophilized, dissolved in DMSO-d6 and subjected to NMR spectroscopy analysis. The samples that indicated the imine formation were further investigated by recording the ^1H, ^15N HMBC and ^1H, ^13C HSQC NMR spectra. The ^1H-NMR and ^1H, ^15N HMBC NMR spectra of the glutamine dissolved in a mixture of 9/1 H2O/D2O were also provided as reference in order to determine which nitrogen was involved in the imine linkage. After the NMR studies, the same samples were diluted with DMSO to obtain a solution of 0.33 mM in order to provide their UV-vis spectra.

[6] = DPPH radical scavenging activity; details: DPPH, 0.0019-1 mM
Text: In this light, the antioxidant activity of the studied phenothiazine derivatives was investigated using DPPH assay, measuring the dependence of the free radical inhibition on the concentration as highlighted by a decreasing of the absorbance of DPPH when the concentration of the compound is increasing. The results, expressed in percentage of inhibition, are represented in Figure 4.
Ex Vivo Radical Scavenging Activity: In order to evaluate antioxidant activity of the studied compounds, a bleaching method of the 1,1-diphenyl-2-picryl hydrazyl (DPPH) radical was used. Briefly, a stock solution of 2 mM of each compound in ethanol was prepared and then diluted to obtain 10 different concentrations from 1 mM to 0.0019 mM using a 96-well plate. The diluted solutions with different concentrations were mixed with an equal volume of ethanolic DPPH solution (0.05 mg/mL), and the mixtures were incubated in the dark at room temperature […] for 1 h. After incubation, the absorbance was read at 517 nm. Inhibition percentage was calculated using Equation (2), where Ac is the absorbance of the control sample (DPPH) and As is the absorbance of the mixtures. All measurements were made in triplicate. I % = (Ac-As)/Ac × 100 (2)

osteosarcoma (HOS) cells = test: Cytotoxicity MTS assay on HOS; format: cell-based, human; details: Homo sapiens, 48 h, tested 0.01-0.3 mM, read-out: Half maximal inhibition concentration (IC50)
Procedure: as §1, §2, §3

[7] = Complex formation with Mg2+ (estimate of farnesyltransferase inhibition), FTIR/UV-vis; details: 2/1 compound/MgCl2, 2 days at 37 °C, FTIR and UV-vis; taken as estimate of farnesyltransferase inhibition
Procedure: To estimate the ability of the studied compounds to inhibit the FT, their ability to bind the Zn^2+ or Mg^2+ ions was investigated by incubation in similar conditions as in vitro antitumor tests. The experiments indicated the ability of TEGylated derivatives to bind Mg^2+ ions, as follows.
After that, all the solutions were lyophilized, and the solid samples obtained were subjected to the FTIR spectroscopy measurements. Then, the mixtures that indicated complex formation were dissolved in DMSO, and their UV-vis spectra were recorded.

[8] = test system: breast cancer (MCF7) cells; test: Cytotoxicity MTS assay on MCF-7; format: cell-based, human; details: for IC50: Homo sapiens, MCF7, MCF-7, 48 h, MTS, tested 0.01-0.3 mM, read-out: Half maximal inhibition concentration (IC50)
Procedure: as §1, §2, §3

[9] = test system: malignant melanoma (MeWo) cells; test: Cytotoxicity MTS assay on MeWo; format: cell-based, human; details: Homo sapiens; MeWo, 48 h, MTS; tested 0.01-0.3 mM; read-out: Half maximal inhibition concentration (IC50)
Procedure: as §1, §2, §3

[10] = test system: cervical carcinoma (HeLa) cells; test: Cytotoxicity MTS assay on HeLa; format: cell-based, human; details: for IC50: Homo sapiens, HeLa, 48 h, MTS, tested 0.01-0.3 mM, read-out: Half maximal inhibition concentration (IC50); for Selectivity index (SI): IC50 NHDF / IC50 HeLa
Procedure: as §1, §2, §3

[11] = test system: glioblastoma (LN229) cells; test: Cytotoxicity MTS assay on LN229; format: cell-based, human; details: Homo sapiens, LN-229, LN229, 48 h, tested 0.01-0.3 mM, read-out: Half maximal inhibition concentration (IC50)
Procedure: as §1, §2, §3

[12] = test system: glioblastoma cell line (U-118); test: Cytotoxicity MTS assay on U-118; format: cell-based, human; details: Homo sapiens; U-118, 48 h, MTS; tested 0.01-0.3 mM; read-out: Half maximal inhibition concentration (IC50)
Procedure: as §1, §2, §3

Colo205 = details: cited from earlier work

solubility [3] [µM] | ability to bind Mg^2+ ions (in words) [7] | SMILES | IC50 (U87-MG) [µM] | IC50 [1] [µM] | Selectivity index (SI) [1] | Selectivity index (SI) [2] | IC50 [2] [µM] | IC50 [4] [µM] | ability to bind glutamine by imination/transimination (in words) [5] | radical scavenging capacity (in words) [6] | IC50 (osteosarcoma (HOS) cells) [µM] | IC50 [8] [µM] | IC50 [9] [µM] | IC50 [10] [µM] | Selectivity index (SI) [10] | IC50 [11] [µM] | IC50 [12] [µM] | Selectivity index (SI) ([8]; IC50 NHDF / IC50 MCF7) | IC50 (Colo205) [µM]
 |  | OCCN1CCN(CCCN2c3ccccc3Sc3ccc(Cl)cc32)CC1 [Perphenazine] | 6.8 |  |  |  |  |  |  |  |  |  |  |  |  |  |  |  | 
< 200 | formation of dative bonds | COCCOCCOCCN1c2ccccc2Sc2cc(/C=N/CCc3ccc(S(N)(=O)=O)cc3)ccc21 [PTEA] |  | 85 | 1.25 | 1.25 | 80 | 107 | direct transimination | very low radical scavenging capacity | > 300 | 138 | 239 | 15 | 6.66 | 183 | 170 |  | 
< 200 | formation of dative bonds | COCCOCCOCCN1c2ccccc2Sc2cc(/C=N/Cc3ccc(S(N)(=O)=O)cc3)ccc21 [PTMA, 4-((((10-(triethylene glycol)-10H-phenothiazin-3-yl)methylene)amino)methyl)benzenesulfonamide] |  | 83 | 2.5 | 2 | 107 | 200 | glutamine binding process took places in two steps | very low radical scavenging capacity | > 300 | 141 | 287 | 29 | 6.89 | 219 | > 300 | 1.42 | 
 |  | CN(C)CCCN1c2ccccc2Sc2ccc(Cl)cc21 [Chlorpromazine] |  |  |  |  |  |  |  |  |  |  |  |  |  |  |  |  | 10
